In patent US20230263822A1, “MODULATION OF FACTOR 11 EXPRESSION” (Ionis Pharmaceuticals, Inc., priority 2008, published 2023):

Legend:
[1] = system: human Factor 11 mRNA; assay: Antisense inhibition of human Factor 11 in HepG2 cells by microwalk gapmers, lipofectin, 75 nM (Example 3); format: cell-based; details: HepG2 cells, lipofectin, gapmers targeted to nucleobases 1275 to 1318 of SEQ ID NO: 1
Method in brief: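 HepG2 cells (10,000/well) were transfected via lipofectin with 75 nM 20-mer MOE gapmers (phosphorothioate, 5-methyl-C) for about 24 h. Factor 11 mRNA was measured by qRT-PCR, normalized to RIBOGREEN total RNA, and given as percent inhibition versus untreated cells.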

[2] = system: human Factor 11 mRNA; assay: Dose-dependent inhibition of human Factor 11 in HepB3 cells, electroporation (Example 7); format: cell-based; details: for percent inhibition of human Factor 11 mRNA relative to untreated control cells: ~16 hours
Protocol: The gapmers were also transfected via electroporation and their dose dependent inhibition of human Factor 11 mRNA was measured. Cells were plated at a density of 20,000 cells per well and transfected via electroporation with 41.15 nM, 123.457 nM, 370.37 nM, 1111.11 nM, 3333.33 nM, and 10,000 nM concentrations of antisense oligonucleotide, as specified in Table 15. After a treatment period of approximately 16 hours, RNA was isolated from the cells and human Factor 11 mRNA levels were measured by quantitative real-time PCR. Human Factor 11 primer probe set RTS 2966 was used to measure mRNA levels. Factor 11 mRNA levels were adjusted according to total RNA content, as measured by RIBOGREEN. Results are presented as percent inhibition of human Factor 11, relative to untreated control cells.

[3] = system: Factor 11 protein; assay: Factor 11 protein in monkey plasma by sandwich ELISA (Example 46); format: in vivo, cynomolgus monkeys; details: 25 mg/kg subcutaneously
Method in brief: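 Monkeys (2 male, 2 female per group) dosed s.c. with antisense oligonucleotide at 25 mg/kg, three times weekly in week 1 then twice weekly through week 8; PBS controls. Plasma Factor 11 measured by sandwich ELISA (1:50 dilution, OPD, 490 nm); expressed as % reduction versus PBS.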

Row | Substance | % inhibition [1] [%] | IC50 [2] [nM] | percent inhibition of human Factor 11 mRNA relative to untreated control cells ([2]; 41.15 nM) [%] | percent inhibition of human Factor 11 mRNA relative to untreated control cells ([2]; 123.457 nM) [%] | percent inhibition of human Factor 11 mRNA relative to untreated control cells ([2]; 370.37 nM) [%] | percent inhibition of human Factor 11 mRNA relative to untreated control cells ([2]; 1111.11 nM) [%] | percent inhibition of human Factor 11 mRNA relative to untreated control cells ([2]; 3333.33 nM) [%] | percent inhibition of human Factor 11 mRNA relative to untreated control cells ([2]; 10000 nM) [%] | Inhibition of Factor 11 protein relative to the PBS control (percentage reduction) ([3]; Day 10, plasma) [%] | Inhibition of Factor 11 protein relative to the PBS control (percentage reduction) ([3]; Day 17, plasma) [%] | Inhibition of Factor 11 protein relative to the PBS control (percentage reduction) ([3]; Day 24, plasma) [%] | Inhibition of Factor 11 protein relative to the PBS control (percentage reduction) ([3]; Day 31, plasma) [%] | Inhibition of Factor 11 protein relative to the PBS control (percentage reduction) ([3]; Day 38, plasma) [%] | Inhibition of Factor 11 protein relative to the PBS control (percentage reduction) ([3]; Day 45, plasma) [%] | Inhibition of Factor 11 protein relative to the PBS control (percentage reduction) ([3]; Day 52, plasma) [%] | Inhibition of Factor 11 protein relative to the PBS control (percentage reduction) ([3]; Day 55, plasma) [%] | Inhibition of Factor 11 protein relative to the PBS control (percentage reduction) ([3]; Day −5, plasma) [%] | Inhibition of Factor 11 protein relative to the PBS control (percentage reduction) ([3]; Day −14, plasma) [%]
1 | 416850 (antisense TGCACAGTTTCTGGCAGGCC; 5-10-5 gapmer, further chemistry not given here) [compound 416850] | 93 | 300 | 26 | 38 | 51 | 73 | 90 | 95 | 20 | 31 | 38 | 52 | 51 | 53 | 53 | 58 | 0 | 0
2 | 416858 (antisense ACGGCATTGGTGCACAGTTT; 5-10-5 gapmer, further chemistry not given here) [compound 416858] | 93 | 300 | 23 | 45 | 52 | 64 | 87 | 92 | 36 | 49 | 62 | 68 | 74 | 79 | 81 | 81 | 0 | 4
3 | 417002 (antisense GGTGCACAGTTTCTGGCAGG; 2-13-5 gapmer chemistry, further chemistry not given here) [compound 417002] | 92 | 1200 | 19 | 0 | 31 | 47 | 86 | 93 | – | – | – | – | – | – | – | – | – | –
4 | 417003 (antisense TGGTGCACAGTTTCTGGCAG; 2-13-5 gapmer chemistry, further chemistry not given here) [compound 417003] | 89 | 1500 | 31 | 0 | 15 | 43 | 84 | 92 | – | – | – | – | – | – | – | – | – | –
